According to ChEMBL document CHEMBL5356936, “Restoring susceptibility to aminoglycosides: identifying small molecule inhibitors of enzymatic inactivation” (RSC Med Chem, 2023):

Tests used:
[1] = Inhibition of Aminoglycoside N-acetyltransferases (unknown origin)
[2] = Inhibition of Histone acetyltransferase in human Huh-7.5.1 cells assessed as hepatitis C virus-induced EGF mRNA level measured after 72 hrs; settings: Huh-7.5.1, 72 h

| SMILES | IC50 [1] | IC50 [2] |
| --- | --- | --- |
| CC(CCN[C@H](CN[C@H](CO)CN1CCC[C@H]1CN[C@H](CN)c1ccccc1)c1ccccc1)c1ccccc1 (some centres not stated) | 2100 nM | – |
| O=C(CCCN1CCC(O)(c2ccc(Cl)cc2)CC1)c1ccc(F)cc1 [HALOPERIDOL] | – | 390 nM |
